Measured values published in publication PMC4926109, “Pharmacological targeting of glucose-6-phosphate dehydrogenase in human erythrocytes by Bay 11–7082, parthenolide and dimethyl fumarate” (Scientific Reports, 2016).
Counter-ions that a name gives are not always drawn. Like-named read-outs stand apart in the source and are kept apart here. Blank lines part the entries; values can stand above or below the compound they belong to.

How the values were obtained:
[1] = test system: mature human erythrocytes; test: MCV and MCHC of inhibitor-treated erythrocytes (ADVIA 120 Hematology System); format: cell-based; details: Hct 0.6%
Protocol: Erythrocyte concentrates (0.6% Hct), suspended in 30 ml Ringer solution were treated with Bay 11–7082 (20 μM), parthenolide (50 μM) and DMF (140 μM) for 24 h, respectively. DMSO (0.2% (v/v))-treated erythrocytes served as negative controls. After incubation, samples were centrifuged at 210 g for 10 min at room temperature in order to obtain RBC pellets. Ionomycin (0.25 μM)-treated erythrocytes served as positive controls, and were first incubated in Ringer solution in the absence of ionomycin for 21.5 h. Subsequently, the cells were treated with ionomycin for 2.5 h, and the MCV and MCHC values were determined. The MCV and MCHC analysis was carried out with an ADVIA 120 Hematology System Instrument (Siemens, Germany).

[2] = test system: mature human erythrocytes; test: Forward scatter (FSC, GeoMean) by flow cytometry, cell volume / cell shrinkage; format: cell-based; details: for GeoMean: Hct 0.6%; for decrease of cell volume (forward scatter): increasing concentrations, 24 h and 48 h, 0.4% Hct
Protocol: (§1) After incubation, 2·10^6 RBCs were washed in 500 μl Annexin-binding buffer. RBC pellets were then vortexed gently to get a homogenous cell suspension. To detect phosphatidylserine (PS) on the outer leaflet of the plasma membrane, these cells were subsequently stained with 32 μl Annexin V-FLUOS at a 1:33 dilution and mixed gently on a vortex mixer. After 20 min incubation in the dark at room temperature, 200 μl of Annexin-binding buffer was added to each sample, thoroughly vortexed to achieve single cell suspensions, and analysed by flow cytometry on a FACS-Calibur (Becton Dickinson, Heidelberg, Germany). Cell volume was determined by forward scatter (FSC), and Annexin V-FLUOS binding was measured in the FL1-channel.

[3] = test system: GSH in mature human erythrocytes; test: Intracellular GSH measurement by HPLC (GS-NEM conjugate); format: cell-based; details: for GSH depletion / GSH: 24 h; for GSH: 0.6% Hct, DMSO control 7.52; for IC50: 24 h in Ringer solution, 0.6% Hct (mean GSH 15 μM), read-out: IC50 (GSH depletion)
Protocol: (§2) DMSO-treated erythrocytes served as negative controls. After incubation, erythrocytes were treated with 0.6 mM (final concentration) NEM prepared as a 310 mM stock in H2O. NEM functioned as the best alkylating agent for GSH conjugation to prevent sample manipulation-induced oxidation of GSH. After a 2-min incubation at room temperature, samples were centrifuged at 210 g for 10 min in order to obtain RBC pellets. These were immediately stored at −20 °C until GSH and GSSG analyses were performed. All measurements were carried out within one week after the treatment. GSH and GSSG were measured in the clear supernatant obtained by treatment of 0.1 ml RBCs with 0.12 ml 15% (w/v) trichloroacetic acid. GSH analysis was carried out by high-performance liquid chromatography (HPLC), as recently reported. […] GSSG was measured photometrically by the GSH recycling method with slight modifications. For hemoglobin determination, one aliquot of the RBC suspensions (10 μl) was hemolysed by 1:200 dilution with H2O[62]. The HPLC analyses were carried out with an Agilent series 1100 instrument (Agilent Technologies, Milan, Italy). The photometric analyses were performed with a Jasco V-530 instrument (Jasco Europe s.r.l. Cremella, Como, Italy).

[4] = test system: GSSG in mature human erythrocytes; test: Intracellular GSSG measurement, photometric GSH recycling method; format: cell-based; details: 24 h, 0.6% Hct, DMSO control 0.06
Protocol: as §2

[5] = target: T1, glucose-6-phosphate dehydrogenase (G6PDH) (Homo sapiens, UniProt P11413); test: G6PDH activity in lysates of inhibitor-treated erythrocytes; format: cell-based; details: for EC50 / EC100 (inhibition of G6PDH activity): erythrocytes treated 24 h, 0.6% Hct; for EC50: read-out: EC50 (inhibition of G6PDH activity)
T1 construct: endogenous in cells; host or cells: human erythrocytes (RBC concentrates), treated 24 h, then lysed
Protocol: (§3) DMSO-treated erythrocytes served as negative controls. Determinations of the enzymatic activities of G6PDH, 6PGDH and GR (+/− FAD) were performed in leukocytes- and platelets-free erythrocyte lysates according to standard biochemical procedures. After 10 min incubation (20 min for GR) at 37 °C the reaction was started by adding substrate or co-factor. Changes in absorbance at 340 nm were recorded at 1 min intervals for 20 min (Infinite 200 Nanoquant spectrophotometer; Tecan, Männedorf, Switzerland). Specific activity of all enzymes was expressed as U/g Hb. The combined activity of G6PDH and 6PGDH was determined by estimating the conversion of NADP^+ to NADPH in the presence of glucose-6-phosphate (600 μM). The activity of 6PGDH alone was then measured by the conversion of NADP^+ to NADPH in the presence of 6-phosphogluconate (600 μM). Finally, G6PDH activity was calculated by subtracting 6PGDH activity from total dehydrogenase activity.

[6] = target: T2, glutathione reductase (GR) (Homo sapiens, UniProt P00390); test: GR activity (+/- FAD) in lysates of inhibitor-treated erythrocytes; format: cell-based
T2 construct: endogenous in cells; host or cells: human erythrocytes (RBC concentrates), treated 24 h, then lysed
T2 sequence (P00390 1-479 isoform P00390-2): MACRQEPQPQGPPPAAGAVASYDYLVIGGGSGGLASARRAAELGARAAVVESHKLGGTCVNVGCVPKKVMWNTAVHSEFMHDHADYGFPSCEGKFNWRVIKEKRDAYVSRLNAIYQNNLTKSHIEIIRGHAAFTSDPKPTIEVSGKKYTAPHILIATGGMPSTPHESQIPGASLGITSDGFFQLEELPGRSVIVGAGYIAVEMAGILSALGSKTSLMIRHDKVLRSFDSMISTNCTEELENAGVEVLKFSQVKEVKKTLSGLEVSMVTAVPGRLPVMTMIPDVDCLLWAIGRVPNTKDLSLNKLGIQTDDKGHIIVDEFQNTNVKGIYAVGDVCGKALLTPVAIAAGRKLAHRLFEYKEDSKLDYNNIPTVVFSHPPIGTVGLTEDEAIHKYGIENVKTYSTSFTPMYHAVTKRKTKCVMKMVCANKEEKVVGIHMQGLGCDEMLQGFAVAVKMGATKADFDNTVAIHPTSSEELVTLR
Protocol: as §3

6PGDH = target: T3, 6PGDH (Homo sapiens, UniProt P52209); test: 6PGDH activity in lysates of inhibitor-treated erythrocytes; format: cell-based; details: at the concentrations used, data not shown
T3 construct: endogenous in cells; host or cells: human erythrocytes (RBC concentrates), treated 24 h, then lysed
T3 sequence (P52209 2-483 limits assumed): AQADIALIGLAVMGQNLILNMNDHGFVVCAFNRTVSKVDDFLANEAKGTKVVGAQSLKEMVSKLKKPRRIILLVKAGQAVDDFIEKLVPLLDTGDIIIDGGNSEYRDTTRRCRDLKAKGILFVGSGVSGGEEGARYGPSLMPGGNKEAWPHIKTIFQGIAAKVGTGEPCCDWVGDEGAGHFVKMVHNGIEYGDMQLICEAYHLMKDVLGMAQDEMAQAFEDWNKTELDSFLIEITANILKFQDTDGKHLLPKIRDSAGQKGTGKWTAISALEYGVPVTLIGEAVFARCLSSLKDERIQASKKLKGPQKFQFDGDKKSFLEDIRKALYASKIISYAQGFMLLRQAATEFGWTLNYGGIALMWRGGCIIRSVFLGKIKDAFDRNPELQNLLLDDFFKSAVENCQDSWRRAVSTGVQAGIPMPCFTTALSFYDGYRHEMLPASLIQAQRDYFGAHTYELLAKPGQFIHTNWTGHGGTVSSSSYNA
Protocol: as §3

Trypanosoma brucei = test: In vitro growth inhibition of parasite culture (own unpublished data); format: cell-based; details: preliminary work
human erythrocytes [7] = test: Hemolysis (hemoglobin in supernatant, 405 nm); details: 24 h / 48 h, compared with Bay 11–7082
Protocol: (§4) RBC concentrates (0.4% Hct) were treated with varying concentrations of Bay 11–7082, parthenolide or DMF for 24 h or 48 h, then hemolysis was determined. Briefly, after incubation, 600 μl suspension containing 1.2·10^7 RBCs were centrifuged for 4 min at 420 g, 4 °C, and the supernatants were harvested. To quantify hemolysis, the hemoglobin concentration of the supernatant was determined photometrically at 405 nm. The absorption of the supernatant of RBCs lysed in distilled water was defined as 100% hemolysis.

human erythrocytes [8] = test: Eryptosis: Annexin V binding to phosphatidylserine, flow cytometry; format: cell-based; details: increasing concentrations, same donors, 24 h and 48 h
Protocol: as §1

human erythrocytes [9] = details: 20 µM
Protocol: as §4

[10] = 140 μM, 24 h incubation, blood group A Rhesus +
[11] = 140 μM, 24 h incubation, blood group B Rhesus +
[12] = 140 μM, 24 h incubation, blood group O Rhesus +
[13] = 20 μM, 24 h incubation, blood group A Rhesus +
[14] = 20 μM, 24 h incubation, blood group B Rhesus +
[15] = 20 μM, 24 h incubation, blood group O Rhesus +
[16] = 0.25 μM, 2.5 h incubation (after 21.5 h in Ringer), positive control, blood group A Rhesus +
[17] = 0.25 μM, 2.5 h incubation (after 21.5 h in Ringer), positive control, blood group B Rhesus +
[18] = 0.25 μM, 2.5 h incubation (after 21.5 h in Ringer), positive control, blood group O Rhesus +
[19] = 50 μM, 24 h incubation, blood group A Rhesus +
[20] = 50 μM, 24 h incubation, blood group B Rhesus +
[21] = 50 μM, 24 h incubation, blood group O Rhesus +

T1 sequence (P11413 2-515 limits assumed): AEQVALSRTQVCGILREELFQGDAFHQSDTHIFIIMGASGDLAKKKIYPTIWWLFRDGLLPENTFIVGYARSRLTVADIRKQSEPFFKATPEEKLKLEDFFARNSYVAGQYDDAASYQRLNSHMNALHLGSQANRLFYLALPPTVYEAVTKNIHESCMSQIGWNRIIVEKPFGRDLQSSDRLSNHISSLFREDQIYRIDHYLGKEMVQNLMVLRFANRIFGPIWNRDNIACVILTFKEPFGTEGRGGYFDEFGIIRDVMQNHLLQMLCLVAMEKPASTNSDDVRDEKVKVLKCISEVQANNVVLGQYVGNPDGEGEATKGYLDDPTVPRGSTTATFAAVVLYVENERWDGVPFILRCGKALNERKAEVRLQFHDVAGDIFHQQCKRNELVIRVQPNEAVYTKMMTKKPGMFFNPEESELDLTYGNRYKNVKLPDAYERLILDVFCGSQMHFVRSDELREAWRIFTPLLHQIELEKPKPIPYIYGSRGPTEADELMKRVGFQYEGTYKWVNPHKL

IC50 ([3]; Homo sapiens, Erythrocyte): 20 µM
G6PDH inactivation ([5]; 140 μM, 24 h): ~ 50%
EC50 [5]: 140 µM
inhibition at 140 µM ([6]; 140 μM, 24 h): 60%
inhibitory effect on 6PGDH activity (6PGDH): did not observe any inhibitory effect
Structure (SMILES): COC(=O)/C=C/C(=O)OC [DMF, dimethyl fumarate]
MCHC [1, 10]: 33.3 g/dL
MCV [1, 10]: 85.6 fL
MCHC [1, 11]: 33.5 g/dL
MCV [1, 11]: 83.5 fL
MCHC [1, 12]: 32.9 g/dL
MCV [1, 12]: 88.2 fL
GeoMean [2, 10]: 426.7
GeoMean [2, 11]: 427.3
GeoMean [2, 12]: 448
decrease of cell volume (forward scatter) [2]: to a lesser extent
GSH depletion ([3]; 140 μM): almost totally deplete GSH
GSH ([3]; 140 μM): 0.17 nmol/mg Hb
GSSG ([4]; 140 μM): 0.03 nmol/mg Hb
in vitro growth inhibitory effect on parasites' culture (Trypanosoma brucei): significant in vitro growth inhibitory effect
ratio of hemolysis to eryptosis (human erythrocytes [7]): even lower as compared with Bay 11–7082

Structure (SMILES): Cc1ccc(S(=O)(=O)/C=C/C#N)cc1 [Bay 11–7082]
MCHC [1, 13]: 33.9 g/dL
MCV [1, 13]: 84.1 fL
MCHC [1, 14]: 37 g/dL
MCV [1, 14]: 78.5 fL
MCHC [1, 15]: 34.1 g/dL
MCV [1, 15]: 86.3 fL
GeoMean [2, 13]: 422.4
GeoMean [2, 14]: 339.3
GeoMean [2, 15]: 410.7
decrease of cell volume (forward scatter) [2]: marked decrease
GSH depletion ([3]; 20 μM final concentration): totally deplete GSH
GSH ([3]; 20 μM): 0.00 nmol/mg Hb
IC50 [3]: 7.6 µM
GSSG ([4]; 20 μM): 0.03 nmol/mg Hb
EC100 (inhibition of G6PDH activity) [5]: 20
EC50 [5]: 10 µM
inhibition of GR activity ([6]; 20 μM, 24 h): 100%
EC100 (inhibition of GR activity) ([6]; erythrocytes treated 24 h, 0.6% Hct): 20
EC50 ([6]; erythrocytes treated 24 h, 0.6% Hct, read-out: EC50 (inhibition of GR activity)): 10 µM
GR activity after addition of exogenous FAD ([6]; samples previously treated with 20 μM for 24 h): did not demonstrate significantly increased GR activity in the presence of FAD
inhibitory effect on 6PGDH activity (6PGDH): did not observe any inhibitory effect
eryptosis (Annexin V binding), comparison of the three inhibitors (human erythrocytes [8]): strongest effect
in vitro growth inhibitory effect on parasites' culture (Trypanosoma brucei): significant in vitro growth inhibitory effect
hemolysis (share of total population) (human erythrocytes [9]): approx. 3%

Structure (SMILES): C[C@H](CCC(=O)O)C[C@H](C)C[C@H](C)C(=O)/C=C(\O)[C@H](C)C[C@H](C)C/C=C/[C@@H](C)[C@@H](O)[C@@H](C)[C@@H](O)C[C@@H]1CC[C@@](C)([C@H]2CC[C@@](C)([C@@H](C)O)O2)O1 [Ionomycin]
MCHC [1, 16]: 53 g/dL
MCV [1, 16]: 73.3 fL
MCHC [1, 17]: 50.4 g/dL
MCV [1, 17]: 72.2 fL
MCHC [1, 18]: 55.7 g/dL
MCV [1, 18]: 75.8 fL
GeoMean [2, 16]: 209.3
GeoMean [2, 17]: 166.2
GeoMean [2, 18]: 186.3

IC50 ([3]; Homo sapiens, Erythrocyte): 10 µM
G6PDH inhibition ([5]; 50 μM, 24 h): total G6PDH inhibition
inhibition at 50 µM ([5]; 50 μM, 24 h): 100%
EC100 (inhibition of G6PDH activity) [5]: 50 µM
EC50 [5]: 12 µM
inhibitory effect on 6PGDH activity (6PGDH): did not observe any inhibitory effect
Structure (SMILES): C=C1C(=O)O[C@H]2[C@H]1CC/C(C)=C/CC[C@@]1(C)O[C@@H]21 [Parthenolide, parthenolide]
MCHC [1, 19]: 33.5 g/dL
MCV [1, 19]: 84.1 fL
MCHC [1, 20]: 34.4 g/dL
MCV [1, 20]: 82.2 fL
MCHC [1, 21]: 33.8 g/dL
MCV [1, 21]: 87 fL
GeoMean [2, 19]: 425.24
GeoMean [2, 20]: 418.8
GeoMean [2, 21]: 451.5
decrease of cell volume (forward scatter) [2]: to a lesser extent
GSH depletion ([3]; 50 μM): almost totally deplete GSH
GSH ([3]; 50 μM): 0.30 nmol/mg Hb
GSSG ([4]; 50 μM): 0.03 nmol/mg Hb
ability to inhibit GR activity ([6]; parthenolide 1–50 μM, 24 h): Unlike parthenolide, only Bay 11–7082 and DMF were able to inhibit the GR activity
in vitro growth inhibitory effect on parasites' culture (Trypanosoma brucei): significant in vitro growth inhibitory effect
ratio of hemolysis to eryptosis (human erythrocytes [7]): even lower as compared with Bay 11–7082
